# Assay results as given in PubChem BioAssay AID504401 (The Scripps Research Institute Molecular Screening Center, 2011).
# Calls of active or inactive are those of the source. No rule for the calls is given here.
# What was measured:
# Experiment in all cases: CYP450 and receptor off-target profile – biochemical, Ricerca HitProfilingScreen, selectivity assay for GPR7 antagonist project, late-stage follow-up (AID 504401)
# [1] = test system: Alpha-2A adrenergic receptor (Homo sapiens) + Histamine H1 receptor (Homo sapiens) + Mu-type opioid receptor (Homo sapiens); conditions: Ricerca radioligand binding and CYP450 panel; at 10 µM; active compounds read high
# Dopamine D2S = conditions: Ricerca radioligand binding and CYP450 panel, at 10 µM, active compounds read high
# [2] = target: Muscarinic acetylcholine receptor M2 (Homo sapiens) (UniProt P08172); conditions: Ricerca radioligand binding and CYP450 panel, at 10 µM, active compounds read high
# Muscarinic acetylcholine receptor M2 (Homo sapiens), sequence (P08172 whole entry, looked up): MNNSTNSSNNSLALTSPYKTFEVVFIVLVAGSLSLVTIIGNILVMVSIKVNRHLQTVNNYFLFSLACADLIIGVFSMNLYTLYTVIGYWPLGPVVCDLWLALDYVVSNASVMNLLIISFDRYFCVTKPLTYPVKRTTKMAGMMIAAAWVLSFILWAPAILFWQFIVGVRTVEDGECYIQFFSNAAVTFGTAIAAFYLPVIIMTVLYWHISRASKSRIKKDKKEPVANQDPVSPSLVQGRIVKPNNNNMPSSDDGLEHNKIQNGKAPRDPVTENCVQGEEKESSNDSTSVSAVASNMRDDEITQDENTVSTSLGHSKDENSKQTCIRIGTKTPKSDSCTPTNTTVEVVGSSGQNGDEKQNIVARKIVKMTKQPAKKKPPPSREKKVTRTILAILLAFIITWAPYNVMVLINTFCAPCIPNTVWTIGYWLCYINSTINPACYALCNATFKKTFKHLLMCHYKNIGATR
# Sigma 1 = conditions: Ricerca radioligand binding and CYP450 panel, at 10 µM, active compounds read high
# CYP450 2C19 = conditions: Ricerca radioligand binding and CYP450 panel, at 10 µM, active compounds read high
# Opiate mu (OP3, MOP) = conditions: Ricerca radioligand binding and CYP450 panel, at 10 µM, active compounds read high
# [3] = target: Muscarinic acetylcholine receptor M3 (Homo sapiens) (UniProt P20309); conditions: Ricerca radioligand binding and CYP450 panel, at 10 µM, active compounds read high
# Muscarinic acetylcholine receptor M3 (Homo sapiens), sequence (P20309 whole entry, looked up): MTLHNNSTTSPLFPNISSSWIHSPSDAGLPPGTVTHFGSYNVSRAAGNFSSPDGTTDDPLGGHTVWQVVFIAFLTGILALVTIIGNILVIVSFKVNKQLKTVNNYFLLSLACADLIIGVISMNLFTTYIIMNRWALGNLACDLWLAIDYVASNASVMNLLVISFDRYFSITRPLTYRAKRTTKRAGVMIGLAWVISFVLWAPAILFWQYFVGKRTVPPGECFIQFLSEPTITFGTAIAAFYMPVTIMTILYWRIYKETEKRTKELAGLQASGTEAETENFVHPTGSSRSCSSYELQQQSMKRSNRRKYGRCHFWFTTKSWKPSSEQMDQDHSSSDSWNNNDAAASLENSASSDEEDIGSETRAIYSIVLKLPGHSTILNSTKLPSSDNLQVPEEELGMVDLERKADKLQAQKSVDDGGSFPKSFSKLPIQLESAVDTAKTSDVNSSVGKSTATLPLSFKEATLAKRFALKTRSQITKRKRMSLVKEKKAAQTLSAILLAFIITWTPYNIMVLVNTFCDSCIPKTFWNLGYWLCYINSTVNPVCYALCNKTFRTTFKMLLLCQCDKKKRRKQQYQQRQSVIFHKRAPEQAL
# Calcium Channel L-Type = conditions: Ricerca radioligand binding and CYP450 panel, Dihydropyridine site, at 10 µM, active compounds read high
# [4] = target: Cytochrome P450 2D6 (Homo sapiens) (UniProt P10635); conditions: Ricerca radioligand binding and CYP450 panel; CYP450 2D6; at 10 µM; active compounds read high
# Cytochrome P450 2D6 (Homo sapiens), sequence (P10635 whole entry, looked up): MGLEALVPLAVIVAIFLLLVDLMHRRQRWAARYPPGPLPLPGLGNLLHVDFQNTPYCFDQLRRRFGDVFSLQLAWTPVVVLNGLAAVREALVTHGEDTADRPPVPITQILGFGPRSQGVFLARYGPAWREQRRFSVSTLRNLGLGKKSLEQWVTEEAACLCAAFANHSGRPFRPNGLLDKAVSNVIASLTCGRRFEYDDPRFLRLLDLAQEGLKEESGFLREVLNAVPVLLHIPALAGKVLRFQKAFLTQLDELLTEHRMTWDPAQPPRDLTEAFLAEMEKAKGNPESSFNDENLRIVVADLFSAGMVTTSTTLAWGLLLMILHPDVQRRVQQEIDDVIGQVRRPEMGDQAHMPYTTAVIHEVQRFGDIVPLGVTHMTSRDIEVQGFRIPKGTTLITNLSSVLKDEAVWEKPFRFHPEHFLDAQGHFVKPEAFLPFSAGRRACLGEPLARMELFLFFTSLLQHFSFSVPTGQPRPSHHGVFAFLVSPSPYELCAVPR
# [5] = test system: Norepinephrine Transporter (NET); conditions: Ricerca radioligand binding and CYP450 panel, at 10 µM, active compounds read high
# [6] = target: Alpha-2A adrenergic receptor (Homo sapiens) (UniProt P08913); conditions: Ricerca radioligand binding and CYP450 panel; Adrenergic alpha2A; at 10 µM; active compounds read high
# Alpha-2A adrenergic receptor (Homo sapiens), sequence (P08913 whole entry, looked up): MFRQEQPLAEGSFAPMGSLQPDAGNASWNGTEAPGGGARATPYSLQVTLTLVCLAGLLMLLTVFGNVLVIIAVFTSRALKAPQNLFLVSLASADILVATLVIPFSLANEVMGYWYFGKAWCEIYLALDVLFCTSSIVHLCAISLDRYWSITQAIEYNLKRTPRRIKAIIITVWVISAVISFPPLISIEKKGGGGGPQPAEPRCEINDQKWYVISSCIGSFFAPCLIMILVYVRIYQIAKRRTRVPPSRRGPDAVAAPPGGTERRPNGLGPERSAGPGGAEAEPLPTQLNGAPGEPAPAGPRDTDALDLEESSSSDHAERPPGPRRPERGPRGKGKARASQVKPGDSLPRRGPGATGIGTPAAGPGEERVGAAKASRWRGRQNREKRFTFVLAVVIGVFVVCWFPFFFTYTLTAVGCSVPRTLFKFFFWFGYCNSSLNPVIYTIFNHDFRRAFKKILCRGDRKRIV
# Prostanoid EP4 = conditions: Ricerca radioligand binding and CYP450 panel, at 10 µM, active compounds read high
# Adenosine A2A = conditions: Ricerca radioligand binding and CYP450 panel, at 10 µM, active compounds read high
# Histamine H1 = conditions: Ricerca radioligand binding and CYP450 panel, at 10 µM, active compounds read high
# Adrenergic alpha1B = conditions: Ricerca radioligand binding and CYP450 panel, at 10 µM, active compounds read high
# Glutamate NMDA = conditions: Ricerca radioligand binding and CYP450 panel, Phencyclidine site, at 10 µM, active compounds read high
# Adrenergic alpha1A = conditions: Ricerca radioligand binding and CYP450 panel, at 10 µM, active compounds read high
# [7] = target: D(1A) dopamine receptor (Homo sapiens) (UniProt P21728); conditions: Ricerca radioligand binding and CYP450 panel; Dopamine D1; at 10 µM; active compounds read high
# D(1A) dopamine receptor (Homo sapiens), sequence (P21728 whole entry, looked up): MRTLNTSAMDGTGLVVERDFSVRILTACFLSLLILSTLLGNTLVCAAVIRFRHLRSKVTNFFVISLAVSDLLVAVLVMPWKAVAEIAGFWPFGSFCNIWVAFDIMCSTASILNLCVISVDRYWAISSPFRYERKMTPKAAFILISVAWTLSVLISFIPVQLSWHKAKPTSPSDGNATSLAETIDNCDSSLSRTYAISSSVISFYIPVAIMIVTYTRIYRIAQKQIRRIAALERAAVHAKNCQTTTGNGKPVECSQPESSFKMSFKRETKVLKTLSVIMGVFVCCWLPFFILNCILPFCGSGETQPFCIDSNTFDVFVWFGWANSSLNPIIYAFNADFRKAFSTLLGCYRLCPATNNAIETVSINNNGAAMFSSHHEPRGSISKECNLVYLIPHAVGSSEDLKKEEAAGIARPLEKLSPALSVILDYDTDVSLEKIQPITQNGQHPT
# [8] = target: Cytochrome P450 3A4 (Homo sapiens) (UniProt P08684); conditions: Ricerca radioligand binding and CYP450 panel; CYP450 3A4; at 10 µM; active compounds read high
# Cytochrome P450 3A4 (Homo sapiens), sequence (P08684 whole entry, looked up): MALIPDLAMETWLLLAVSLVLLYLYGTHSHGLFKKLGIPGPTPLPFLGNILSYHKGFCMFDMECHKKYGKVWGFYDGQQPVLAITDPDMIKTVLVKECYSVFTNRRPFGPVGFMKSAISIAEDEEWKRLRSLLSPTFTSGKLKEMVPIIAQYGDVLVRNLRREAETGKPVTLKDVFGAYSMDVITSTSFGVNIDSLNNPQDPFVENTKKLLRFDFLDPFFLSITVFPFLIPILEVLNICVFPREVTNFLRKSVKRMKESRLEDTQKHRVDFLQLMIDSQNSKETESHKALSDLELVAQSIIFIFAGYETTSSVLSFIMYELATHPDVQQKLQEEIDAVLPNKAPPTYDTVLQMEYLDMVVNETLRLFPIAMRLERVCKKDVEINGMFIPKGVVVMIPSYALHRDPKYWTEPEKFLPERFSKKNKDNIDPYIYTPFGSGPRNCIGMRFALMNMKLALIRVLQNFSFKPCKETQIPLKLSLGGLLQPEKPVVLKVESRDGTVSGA
# [9] = target: Beta-2 adrenergic receptor (Homo sapiens) (UniProt P07550); conditions: Ricerca radioligand binding and CYP450 panel; Adrenergic beta2; at 10 µM; active compounds read high
# Beta-2 adrenergic receptor (Homo sapiens), sequence (P07550 whole entry, looked up): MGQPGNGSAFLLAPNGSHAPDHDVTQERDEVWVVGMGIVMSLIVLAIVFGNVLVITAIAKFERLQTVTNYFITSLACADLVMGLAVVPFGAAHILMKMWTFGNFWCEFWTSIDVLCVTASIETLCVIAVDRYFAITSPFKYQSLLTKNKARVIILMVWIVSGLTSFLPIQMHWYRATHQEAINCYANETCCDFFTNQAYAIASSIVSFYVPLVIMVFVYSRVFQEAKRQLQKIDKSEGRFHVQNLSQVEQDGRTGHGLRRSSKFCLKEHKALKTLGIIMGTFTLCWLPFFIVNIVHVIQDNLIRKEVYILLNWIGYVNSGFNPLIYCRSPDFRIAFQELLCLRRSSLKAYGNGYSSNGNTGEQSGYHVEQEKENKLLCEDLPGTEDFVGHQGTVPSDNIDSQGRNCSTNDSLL
# GABAA = conditions: Ricerca radioligand binding and CYP450 panel, central, at 10 µM, active compounds read high
# [10] = target: Voltage-gated inwardly rectifying potassium channel KCNH2 (Homo sapiens) (UniProt Q12809); conditions: Ricerca radioligand binding and CYP450 panel; Potassium Channel hERG; at 10 µM; active compounds read high
# Cannabinoid CB1 = conditions: Ricerca radioligand binding and CYP450 panel, at 10 µM, active compounds read high
# Nicotinic Acetylcholine = conditions: Ricerca radioligand binding and CYP450 panel, at 10 µM, active compounds read high
# Adrenergic beta1 = conditions: Ricerca radioligand binding and CYP450 panel, at 10 µM, active compounds read high
# [11] = target: 5-hydroxytryptamine receptor 2B (Homo sapiens) (UniProt P41595); conditions: Ricerca radioligand binding and CYP450 panel; Serotonin (5-Hydroxytryptamine) 5-HT2B; at 10 µM; active compounds read high
# 5-hydroxytryptamine receptor 2B (Homo sapiens), sequence (P41595 whole entry, looked up): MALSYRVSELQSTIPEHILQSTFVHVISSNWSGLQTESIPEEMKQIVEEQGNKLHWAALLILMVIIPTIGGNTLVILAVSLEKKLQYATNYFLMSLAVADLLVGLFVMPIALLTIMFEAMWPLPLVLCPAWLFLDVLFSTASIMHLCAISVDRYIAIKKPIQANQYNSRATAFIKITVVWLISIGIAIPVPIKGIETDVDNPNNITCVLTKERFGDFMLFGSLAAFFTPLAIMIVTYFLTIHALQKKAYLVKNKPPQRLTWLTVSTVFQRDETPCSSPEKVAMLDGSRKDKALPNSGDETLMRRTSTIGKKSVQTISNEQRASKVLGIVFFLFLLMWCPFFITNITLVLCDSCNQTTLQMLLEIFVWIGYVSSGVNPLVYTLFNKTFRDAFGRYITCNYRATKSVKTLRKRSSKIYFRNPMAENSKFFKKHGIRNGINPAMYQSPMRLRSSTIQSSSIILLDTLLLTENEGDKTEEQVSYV
# Sodium Channel = conditions: Ricerca radioligand binding and CYP450 panel, site 2, at 10 µM, active compounds read high
# [12] = target: Cytochrome P450 1A2 (Homo sapiens) (UniProt P05177); conditions: Ricerca radioligand binding and CYP450 panel; CYP450 1A2; at 10 µM; active compounds read high
# Cytochrome P450 1A2 (Homo sapiens), sequence (P05177 whole entry, looked up): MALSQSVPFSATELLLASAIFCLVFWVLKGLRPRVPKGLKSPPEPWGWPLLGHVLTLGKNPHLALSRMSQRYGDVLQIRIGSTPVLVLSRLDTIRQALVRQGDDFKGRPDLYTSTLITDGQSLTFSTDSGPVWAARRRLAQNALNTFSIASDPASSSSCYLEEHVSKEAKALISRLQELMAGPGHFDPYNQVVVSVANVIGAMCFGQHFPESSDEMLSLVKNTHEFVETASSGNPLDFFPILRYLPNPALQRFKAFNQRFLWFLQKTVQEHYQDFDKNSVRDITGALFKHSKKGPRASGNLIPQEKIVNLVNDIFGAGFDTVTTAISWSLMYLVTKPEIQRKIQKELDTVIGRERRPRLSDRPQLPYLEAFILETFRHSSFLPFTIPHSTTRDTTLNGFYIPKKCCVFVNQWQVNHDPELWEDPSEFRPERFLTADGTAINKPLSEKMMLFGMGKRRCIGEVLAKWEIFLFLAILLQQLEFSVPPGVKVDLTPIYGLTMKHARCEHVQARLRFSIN
# Adenosine A1 = conditions: Ricerca radioligand binding and CYP450 panel, at 10 µM, active compounds read high
# [13] = target: Cytochrome P450 2C9 (Homo sapiens) (UniProt P11712); conditions: Ricerca radioligand binding and CYP450 panel; CYP450 2C9; at 10 µM; active compounds read high
# Cytochrome P450 2C9 (Homo sapiens), sequence (P11712 whole entry, looked up): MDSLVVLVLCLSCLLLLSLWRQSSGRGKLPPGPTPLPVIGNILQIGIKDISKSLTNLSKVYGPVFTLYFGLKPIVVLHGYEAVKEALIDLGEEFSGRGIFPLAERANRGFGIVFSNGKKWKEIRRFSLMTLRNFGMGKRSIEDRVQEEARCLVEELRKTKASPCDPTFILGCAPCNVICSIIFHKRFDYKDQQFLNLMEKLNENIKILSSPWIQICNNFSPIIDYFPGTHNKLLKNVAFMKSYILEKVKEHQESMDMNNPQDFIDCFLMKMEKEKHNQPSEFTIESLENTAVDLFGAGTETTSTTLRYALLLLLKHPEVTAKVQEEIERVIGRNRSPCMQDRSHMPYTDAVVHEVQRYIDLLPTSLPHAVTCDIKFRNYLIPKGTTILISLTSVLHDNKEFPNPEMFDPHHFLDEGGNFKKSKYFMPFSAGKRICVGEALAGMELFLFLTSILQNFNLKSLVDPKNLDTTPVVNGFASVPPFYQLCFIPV
smiles,measurement,setting,value
COc1ccc(Oc2c(Cl)cnn(-c3cc(C)cc(C)c3)c2=O)cc1,inhibition,[1],-3% (inactive)
same,inhibition,Dopamine D2S,13% (inactive)
same,inhibition,[2],2% (inactive)
same,inhibition,Sigma 1,-4% (inactive)
same,inhibition,CYP450 2C19,-3% (inactive)
same,inhibition,"Opiate mu (OP3, MOP)",-7% (inactive)
same,inhibition,[3],0% (inactive)
same,inhibition,Calcium Channel L-Type,26% (inactive)
same,inhibition,[4],16% (inactive)
same,inhibition,[5],47% (inactive)
same,inhibition,[6],8% (inactive)
same,inhibition,Prostanoid EP4,2% (inactive)
same,inhibition,Adenosine A2A,14% (inactive)
same,inhibition,Histamine H1,16% (inactive)
same,inhibition,Adrenergic alpha1B,3% (inactive)
same,inhibition,Glutamate NMDA,-3% (inactive)
same,inhibition,Adrenergic alpha1A,2% (inactive)
same,inhibition,[7],5% (inactive)
same,inhibition,[8],53%
same,inhibition,[9],-2% (inactive)
same,inhibition,GABAA; Flunitrazepam site,-1% (inactive)
same,inhibition,GABAA; Muscimol site,4% (inactive)
same,inhibition,[10],13% (inactive)
same,inhibition,Cannabinoid CB1,25% (inactive)
same,inhibition,Nicotinic Acetylcholine,-22% (inactive)
same,inhibition,Adrenergic beta1,13% (inactive)
same,inhibition,[11],8% (inactive)
same,inhibition,Sodium Channel,23% (inactive)
same,inhibition,[12],11% (inactive)
same,inhibition,Adenosine A1,19% (inactive)
same,inhibition,[13],5% (inactive)
